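Method: 48-hour compound exposure of cells in 96-well plates, five concentrations, linear interpolation of endpoints. GI50 is the concentration that inhibits growth by half. TGI: concentration producing complete growth inhibition.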
Key:
Assay in all cases: growth of human tumour cells (NCI), 48 h
A498 renal = test system: A498 renal
ACHN renal = test system: ACHN renal
RXF 393 renal = test system: RXF 393 renal
A549 NSCLC = test system: A549 NSCLC
OVCAR-4 ovarian = test system: OVCAR-4 ovarian
LOX IMVI melanoma = test system: LOX IMVI melanoma
EKVX NSCLC = test system: EKVX NSCLC
K-562 leukemia = test system: K-562 leukemia
MALME-3M melanoma = test system: MALME-3M melanoma
PC-3 prostate = test system: PC-3 prostate
SW-620 colon = test system: SW-620 colon
RPMI-8226 leukemia = test system: RPMI-8226 leukemia
CAKI-1 renal = test system: CAKI-1 renal
OVCAR-3 ovarian = test system: OVCAR-3 ovarian
UACC-62 melanoma = test system: UACC-62 melanoma
BT-549 breast = test system: BT-549 breast
OVCAR-8 ovarian = test system: OVCAR-8 ovarian
MDA-MB-435 = test system: MDA-MB-435
CCRF-CEM leukemia = test system: CCRF-CEM leukemia
UO-31 renal = test system: UO-31 renal
M14 melanoma = test system: M14 melanoma
NCI-H522 lung = test system: NCI-H522 lung
MDA-MB-231 breast = test system: MDA-MB-231 breast
U251 CNS = test system: U251 CNS
HL-60(TB) leukemia = test system: HL-60(TB) leukemia
SNB-75 CNS = test system: SNB-75 CNS
HT29 colon = test system: HT29 colon
OVCAR-5 ovarian = test system: OVCAR-5 ovarian
NCI-H226 lung = test system: NCI-H226 lung
HOP-62 NSCLC = test system: HOP-62 NSCLC
SF-539 CNS = test system: SF-539 CNS
HCT-15 colon = test system: HCT-15 colon
786-0 renal = test system: 786-0 renal
HCT-116 colon = test system: HCT-116 colon
SR leukemia = test system: SR leukemia
SK-MEL-2 melanoma = test system: SK-MEL-2 melanoma
TK-10 renal = test system: TK-10 renal
SNB-19 CNS = test system: SNB-19 CNS
T-47D breast = test system: T-47D breast
KM12 colon = test system: KM12 colon
SK-MEL-28 melanoma = test system: SK-MEL-28 melanoma
NCI/ADR-RES ovarian = test system: NCI/ADR-RES ovarian
HOP-92 NSCLC = test system: HOP-92 NSCLC
COLO 205 colon = test system: COLO 205 colon
SK-OV-3 ovarian = test system: SK-OV-3 ovarian
NCI-H23 lung = test system: NCI-H23 lung
SF-268 CNS = test system: SF-268 CNS
IGROV1 ovarian = test system: IGROV1 ovarian
MCF7 breast = test system: MCF7 breast
NCI-H460 lung = test system: NCI-H460 lung
HCC-2998 colon = test system: HCC-2998 colon
SK-MEL-5 melanoma = test system: SK-MEL-5 melanoma
SN12C renal = test system: SN12C renal
DU-145 prostate = test system: DU-145 prostate
MOLT-4 leukemia = test system: MOLT-4 leukemia
UACC-257 melanoma = test system: UACC-257 melanoma
SF-295 CNS = test system: SF-295 CNS
HS 578T breast = test system: HS 578T breast

## CC(=O)Nc1cc(F)cc(-c2ccc3[nH]cc(-c4ccccc4)c3n2)c1
A498 renal
  GI50: 3.75 µM
  TGI: 12.7 µM
ACHN renal
  GI50: 4.08 µM
  TGI: 14.3 µM
RXF 393 renal
  GI50: 2.5 µM
  TGI: 7.97 µM
A549 NSCLC
  GI50: 3.6 µM
  TGI: 16.7 µM
OVCAR-4 ovarian
  GI50: 5.44 µM
  TGI: 18.6 µM
LOX IMVI melanoma
  GI50: 1.75 µM
  TGI: 3.39 µM
EKVX NSCLC
  GI50: 4.71 µM
  TGI: 21.5 µM
K-562 leukemia
  GI50: 2.79 µM
  TGI: 9.11 µM
MALME-3M melanoma
  GI50: 3.5 µM
  TGI: 12.8 µM
PC-3 prostate
  GI50: 3.33 µM
  TGI: 16 µM
SW-620 colon
  GI50: 3.31 µM
  TGI: 25.3 µM
RPMI-8226 leukemia
  GI50: 3.08 µM
  TGI: 19.2 µM
CAKI-1 renal
  GI50: 3.32 µM
  TGI: 12.2 µM
OVCAR-3 ovarian
  GI50: 5.08 µM
  TGI: 17.8 µM
UACC-62 melanoma
  GI50: 3.34 µM
  TGI: 11.9 µM
BT-549 breast
  GI50: 4.78 µM
  TGI: 17 µM
OVCAR-8 ovarian
  GI50: 6.16 µM
  TGI: 44.3 µM
MDA-MB-435
  GI50: 4.05 µM
  TGI: 15.5 µM
CCRF-CEM leukemia
  GI50: 3.42 µM
  TGI: 17.9 µM
UO-31 renal
  GI50: 3.88 µM
  TGI: 14.8 µM
M14 melanoma
  GI50: 2.65 µM
  TGI: 7.85 µM
NCI-H522 lung
  GI50: 1.83 µM
  TGI: 4.11 µM
MDA-MB-231 breast
  GI50: 3.46 µM
  TGI: 12.7 µM
U251 CNS
  GI50: 3.73 µM
  TGI: 16.1 µM
HL-60(TB) leukemia
  GI50: 2.72 µM
  TGI: 10.7 µM
SNB-75 CNS
  GI50: 4.93 µM
  TGI: 18.1 µM
HT29 colon
  GI50: 2.21 µM
  TGI: 5.15 µM
OVCAR-5 ovarian
  GI50: 4.92 µM
  TGI: 22.1 µM
NCI-H226 lung
  GI50: 6.31 µM
  TGI: 23 µM
HOP-62 NSCLC
  GI50: 4.2 µM
  TGI: 17.4 µM
SF-539 CNS
  GI50: 2.97 µM
  TGI: 10.7 µM
HCT-15 colon
  GI50: 2.08 µM
  TGI: 5.05 µM
786-0 renal
  GI50: 2.22 µM
  TGI: 5.65 µM
HCT-116 colon
  GI50: 3.33 µM
  TGI: 12 µM
SR leukemia
  GI50: 2.75 µM
  TGI: 8.4 µM
SK-MEL-2 melanoma
  GI50: 2.46 µM
  TGI: 6.8 µM
TK-10 renal
  GI50: 6 µM
  TGI: 18.3 µM
SNB-19 CNS
  GI50: 3.9 µM
  TGI: 13.9 µM
T-47D breast
  GI50: 4.77 µM
  TGI: 29.1 µM
KM12 colon
  GI50: 1.87 µM
  TGI: 3.56 µM
SK-MEL-28 melanoma
  GI50: 2.43 µM
  TGI: 6.13 µM
NCI/ADR-RES ovarian
  GI50: 3.99 µM
  TGI: 23 µM
HOP-92 NSCLC
  GI50: 2.97 µM
  TGI: 9.63 µM
COLO 205 colon
  GI50: 2.17 µM
  TGI: 4.69 µM
SK-OV-3 ovarian
  GI50: 6.84 µM
  TGI: 21.3 µM
NCI-H23 lung
  GI50: 4.98 µM
  TGI: 20 µM
SF-268 CNS
  GI50: 5.12 µM
  TGI: 22 µM
IGROV1 ovarian
  GI50: 5.04 µM
  TGI: 21.1 µM
MCF7 breast
  GI50: 2.9 µM
  TGI: 12.3 µM
NCI-H460 lung
  GI50: 3.37 µM
  TGI: 14.6 µM
HCC-2998 colon
  GI50: 2.11 µM
  TGI: 4.71 µM
SK-MEL-5 melanoma
  GI50: 4.07 µM
  TGI: 15 µM
SN12C renal
  GI50: 6.7 µM
  TGI: 21.9 µM
DU-145 prostate
  GI50: 5.52 µM
  TGI: 17.9 µM
MOLT-4 leukemia
  GI50: 2.26 µM
  TGI: 10.4 µM
UACC-257 melanoma
  GI50: 2.32 µM
  TGI: 5.96 µM
SF-295 CNS
  GI50: 2.1 µM
  TGI: 5.16 µM
HS 578T breast
  GI50: 5.01 µM
  TGI: 47.7 µM

## COc1ccc(/C=N/NC(=O)c2[nH]c3ccc(Br)cc3c2-c2ccccc2)s1
A498 renal
  GI50: 33.8 µM
  TGI: > 100 µM
ACHN renal
  GI50: 0.169 µM
  TGI: > 52.8 µM
RXF 393 renal
  GI50: 0.299 µM
  TGI: 0.91 µM
A549 NSCLC
  GI50: 0.16 µM
  TGI: > 100 µM
OVCAR-4 ovarian
  GI50: 0.224 µM
  TGI: 57.6 µM
LOX IMVI melanoma
  GI50: 0.0384 µM
  TGI: > 100 µM
EKVX NSCLC
  GI50: 3.55 µM
  TGI: > 100 µM
K-562 leukemia
  GI50: 0.113 µM
  TGI: > 100 µM
MALME-3M melanoma
  GI50: 0.148 µM
  TGI: > 70.3 µM
PC-3 prostate
  GI50: 0.263 µM
  TGI: > 89.4 µM
SW-620 colon
  GI50: 0.147 µM
  TGI: > 100 µM
RPMI-8226 leukemia
  GI50: 0.118 µM
  TGI: > 100 µM
CAKI-1 renal
  GI50: 0.168 µM
  TGI: > 57.3 µM
OVCAR-3 ovarian
  GI50: 0.249 µM
  TGI: 0.823 µM
UACC-62 melanoma
  GI50: 0.146 µM
  TGI: > 51.5 µM
BT-549 breast
  GI50: 0.0885 µM
  TGI: 0.367 µM
OVCAR-8 ovarian
  GI50: 0.0593 µM
MDA-MB-435
  GI50: 0.0656 µM
  TGI: 0.153 µM
CCRF-CEM leukemia
  GI50: 0.121 µM
  TGI: > 100 µM
UO-31 renal
  GI50: 0.188 µM
  TGI: > 100 µM
M14 melanoma
  GI50: 0.142 µM
  TGI: > 100 µM
NCI-H522 lung
  GI50: 0.0193 µM
  TGI: 0.0544 µM
MDA-MB-231 breast
  GI50: 0.336 µM
  TGI: 15.7 µM
U251 CNS
  GI50: 0.259 µM
  TGI: > 100 µM
HL-60(TB) leukemia
  GI50: 0.0778 µM
  TGI: 2.69 µM
SNB-75 CNS
  GI50: 0.148 µM
  TGI: 20 µM
HT29 colon
  GI50: 0.0846 µM
  TGI: 3.29 µM
OVCAR-5 ovarian
  GI50: 0.136 µM
  TGI: > 100 µM
NCI-H226 lung
  GI50: 0.115 µM
  TGI: 30.2 µM
HOP-62 NSCLC
  GI50: 0.455 µM
  TGI: > 87.8 µM
SF-539 CNS
  GI50: 0.0724 µM
  TGI: 0.206 µM
HCT-15 colon
  GI50: 0.141 µM
  TGI: > 37 µM
786-0 renal
  GI50: 0.152 µM
  TGI: > 100 µM
HCT-116 colon
  GI50: 0.103 µM
SR leukemia
  GI50: 0.102 µM
  TGI: > 100 µM
SK-MEL-2 melanoma
  GI50: 0.0935 µM
  TGI: 36.4 µM
TK-10 renal
  GI50: 3.72 µM
  TGI: > 75.1 µM
SNB-19 CNS
  GI50: 0.275 µM
  TGI: > 95.2 µM
T-47D breast
  GI50: 7.1 µM
  TGI: > 100 µM
KM12 colon
  GI50: 0.301 µM
  TGI: > 60.5 µM
SK-MEL-28 melanoma
  GI50: 0.745 µM
  TGI: > 100 µM
NCI/ADR-RES ovarian
  GI50: 0.0398 µM
  TGI: 4.36 µM
HOP-92 NSCLC
  GI50: 1.28 µM
  TGI: > 100 µM
COLO 205 colon
  GI50: 0.195 µM
  TGI: 0.375 µM
SK-OV-3 ovarian
  GI50: 0.219 µM
  TGI: 99.4 µM
NCI-H23 lung
  GI50: 0.124 µM
  TGI: > 47.7 µM
SF-268 CNS
  GI50: 0.532 µM
  TGI: > 100 µM
IGROV1 ovarian
  GI50: 0.123 µM
  TGI: 25.2 µM
MCF7 breast
  GI50: 0.11 µM
  TGI: 14.4 µM
NCI-H460 lung
  GI50: 0.246 µM
  TGI: 3.63 µM
HCC-2998 colon
  GI50: 0.349 µM
  TGI: > 71.6 µM
SK-MEL-5 melanoma
  GI50: 0.101 µM
  TGI: 0.394 µM
SN12C renal
  GI50: 0.116 µM
  TGI: > 42.1 µM
DU-145 prostate
  GI50: 0.135 µM
  TGI: 45.7 µM
MOLT-4 leukemia
  GI50: 0.113 µM
  TGI: > 100 µM
UACC-257 melanoma
  GI50: 0.283 µM
  TGI: > 100 µM
SF-295 CNS
  GI50: 0.106 µM
  TGI: 15.1 µM
HS 578T breast
  GI50: 1.14 µM
  TGI: > 31.4 µM
